Results published in patent US8440628B2, “Medical compositions containing ghrelin” (Daiichi Sankyo Company, Limited, priority 2002, dated 2013).

Tests used:
[1] = Adsorption inhibiting effect of anti-adsorbents on human ghrelin in glass and polypropylene test tubes (Example 9); assay type: physicochemical; conditions: for Adsorption inhibiting effect: added at 0.01% or 0.1% to human ghrelin 1.0 μg/mL solution; for Human ghrelin concentration of the solution (Initial Conc. = 100): human ghrelin 1.0 μg/mL in 5% mannitol-0.05M glycine hydrochloride buffer (pH 3.5)
Method: As the anti-adsorbent, the surfactant, that is, polyoxyethylene sorbitan monooleate (hereinafter, referred to as Tween® 80), and benzalkonium chloride were selected.
The anti-adsorbent was added to this solution with 0.01% or 0.1% concentration.
The human ghrelin concentrations of each solution were measured by HPLC method right after preparation, and these solutions were replaced in glass test tubes. After that, each solution were further replaced in new glass test tubes, and same operation was repeated for 5 and 10 times, then, the human ghrelin concentrations of each treated solution were measured by HPLC method. As a control, the solution not containing anti-adsorbent was examined.
Same procedure was repeated by using test tube made by polypropylene instead of glass test tube.

[2] = Stability of human ghrelin(1-7)amide in pH-adjusted purified water at 25°C (Example 8); assay type: physicochemical; conditions: for Peak area ratio to total peak area: 25±2°C
Method: Human ghrelin(1-7)amide was dissolved in the purified water with about 0.12 μmol/mL (0.1 mg/mL). The pH of this solution was 5.0. This solution was divided into quarter, and one portion was kept alone and the pH values of the remaining three portions were adjusted to pH 1.8 (with 17 mM of hydrochloric acid), pH 4.1 (with 0.05 mM of hydrochloric acid) and pH 7.9 (with 0.20 mM of sodium hydroxide) respectively, by adding with hydrochloric acid or sodium hydroxide aqueous solution.
These four solutions were stored at 25±2° C. for 1 and 3 day, and after storage, the HPLC analyses of each solutions were conducted to calculate the peak area ratio of human ghrelin(1-7)amide, desacyl human ghrelin(1-7)amide and [3-dehydroalanine]-human ghrelin(1-7)amide to the total peak area.

[3] = compared with human ghrelin; cited from earlier work
[4] = anti-adsorbent 0.01%, Glass tube, replaced 5 times
[5] = anti-adsorbent 0.01%, Glass tube, replaced 10 times
[6] = anti-adsorbent 0.01%, Initial Conc.
[7] = anti-adsorbent 0.01%, Polypropylene tube, replaced 5 times
[8] = anti-adsorbent 0.01%, Polypropylene tube, replaced 10 times
[9] = anti-adsorbent 0.1%, Glass tube, replaced 5 times
[10] = anti-adsorbent 0.1%, Glass tube, replaced 10 times
[11] = anti-adsorbent 0.1%, Initial Conc.
[12] = anti-adsorbent 0.1%, Polypropylene tube, replaced 5 times
[13] = anti-adsorbent 0.1%, Polypropylene tube, replaced 10 times
[14] = human ghrelin(1-7)amide 0.1 mg/mL in purified water adjusted to pH 1.8 with hydrochloric acid, 1 day after
[15] = human ghrelin(1-7)amide 0.1 mg/mL in purified water adjusted to pH 1.8 with hydrochloric acid, 3 days after
[16] = human ghrelin(1-7)amide 0.1 mg/mL in purified water adjusted to pH 1.8 with hydrochloric acid, before storage
[17] = human ghrelin(1-7)amide 0.1 mg/mL in purified water adjusted to pH 4.1 with hydrochloric acid, 1 day after
[18] = human ghrelin(1-7)amide 0.1 mg/mL in purified water adjusted to pH 4.1 with hydrochloric acid, 3 days after
[19] = human ghrelin(1-7)amide 0.1 mg/mL in purified water adjusted to pH 4.1 with hydrochloric acid, before storage
[20] = human ghrelin(1-7)amide 0.1 mg/mL in purified water adjusted to pH 7.9 with sodium hydroxide, 1 day after
[21] = human ghrelin(1-7)amide 0.1 mg/mL in purified water adjusted to pH 7.9 with sodium hydroxide, 3 days after
[22] = human ghrelin(1-7)amide 0.1 mg/mL in purified water adjusted to pH 7.9 with sodium hydroxide, before storage
[23] = human ghrelin(1-7)amide 0.1 mg/mL in purified water, pH 5.0 (not adjusted), 1 day after
[24] = human ghrelin(1-7)amide 0.1 mg/mL in purified water, pH 5.0 (not adjusted), 3 days after
[25] = human ghrelin(1-7)amide 0.1 mg/mL in purified water, pH 5.0 (not adjusted), before storage

Row | Human ghrelin concentration of the solution (Initial Conc. = 100) [1, 4] | Human ghrelin concentration of the solution (Initial Conc. = 100) [1, 5] | Human ghrelin concentration of the solution (Initial Conc. = 100) [1, 6] | Human ghrelin concentration of the solution (Initial Conc. = 100) [1, 7] | Human ghrelin concentration of the solution (Initial Conc. = 100) [1, 8] | Human ghrelin concentration of the solution (Initial Conc. = 100) [1, 9] | Human ghrelin concentration of the solution (Initial Conc. = 100) [1, 10] | Substance | Adsorption inhibiting effect [1] | Peak area ratio to total peak area [2, 14] [%] | Peak area ratio to total peak area [2, 15] [%] | Peak area ratio to total peak area [2, 16] [%] | Peak area ratio to total peak area [2, 17] [%] | Peak area ratio to total peak area [2, 18] [%] | Peak area ratio to total peak area [2, 19] [%] | Peak area ratio to total peak area [2, 20] [%] | Peak area ratio to total peak area [2, 21] [%] | Peak area ratio to total peak area [2, 22] [%] | Peak area ratio to total peak area [2, 23] [%] | Peak area ratio to total peak area [2, 24] [%] | Peak area ratio to total peak area [2, 25] [%] | further results
1 | 81 | 64 | 100 | 97 | 96 | 99 | 99 | benzalkonium chloride | high adsorption inhibiting effect against both glass tube and polypropylene tube | – | – | – | – | – | – | – | – | – | – | – | – | Human ghrelin concentration of the solution (Initial Conc. = 100) [1, 11]: 100; Human ghrelin concentration of the solution (Initial Conc. = 100) [1, 12]: 99; Human ghrelin concentration of the solution (Initial Conc. = 100) [1, 13]: 101
2 | – | – | – | – | – | – | – | desacyl human ghrelin(1-7)amide | – | 3.75 | 8.89 | 0.98 | 0.73 | 0.77 | 0.72 | 3.21 | 6.21 | 1.12 | 0.73 | 0.79 | 0.70 | –
3 | – | – | – | – | – | – | – | Human ghrelin(1-7)amide | – | 95.40 | 90.11 | 98.39 | 98.68 | 98.60 | 98.76 | 95.89 | 92.54 | 98.22 | 98.57 | 98.51 | 98.69 | Biological activity [3]: same biological activity as human ghrelin; Production of the degradation products ([2]; aqueous solution of pH 4.1 and 5.0, 25±2°C, up to 3 days): inhibited; Peak area ratio to total peak area ([2]; human ghrelin(1-7)amide 0.1 mg/mL in purified water adjusted to pH 1.8 with hydrochloric acid, 1 day after, listed as human ghrelin(1-7)amide): less than 98%; Peak area ratio to total peak area ([2]; human ghrelin(1-7)amide 0.1 mg/mL in purified water adjusted to pH 7.9 with sodium hydroxide, 1 day after, listed as human ghrelin(1-7)amide): less than 98%; pH of the solution ([2]; human ghrelin(1-7)amide dissolved in purified water, about 0.12 μmol/mL (0.1 mg/mL)): 5.0
4 | – | – | – | – | – | – | – | [3-dehydroalanine]-human ghrelin(1-7)amide | – | 0.07 | 0.10 | 0.02 | 0.03 | 0.01 | 0.00 | 0.23 | 0.54 | 0.03 | 0.02 | 0.06 | 0.00 | –
5 | 17 | 0 | 100 | 90 | 90 | 20 | 5 | polyoxyethylene sorbitan monooleate [Tween 80] | high adsorption inhibiting effect against polypropylene tube | – | – | – | – | – | – | – | – | – | – | – | – | Human ghrelin concentration of the solution (Initial Conc. = 100) [1, 11]: 100; Human ghrelin concentration of the solution (Initial Conc. = 100) [1, 12]: 93; Human ghrelin concentration of the solution (Initial Conc. = 100) [1, 13]: 91
